In publication PMC5218480 (PLoS ONE, 2017):

System: MV-4-11 cells
Test: Gene expression microarray analysis (Affymetrix PrimeView) and GSEA
Type: cell-based, human
Design: RFU PODN (11730768_x_at) / Fold change /veh PODN (11730768_x_at) / RFU LINC00158 (11744669_a_at) / Fold change /veh LINC00158 (11744669_a_at) / RFU DUSP10 (11751237_a_at) / Fold change /veh DUSP10 (11751237_a_at) / RFU ID3 (11757404_x_at) / Fold change /veh ID3 (11757404_x_at) / RFU PLEKHG5 (11737974_s_at) / Fold change /veh PLEKHG5 (11737974_s_at) / RFU LRRC4B (11730491_at) / Fold change /veh LRRC4B (11730491_at) / RFU GIMAP4 (11747438_a_at) / Fold change /veh GIMAP4 (11747438_a_at) / RFU KRT8 (11758183_x_at) / Fold change /veh KRT8 (11758183_x_at) / RFU CNN1 (11734310_a_at) / Fold change /veh CNN1 (11734310_a_at) / RFU VPS37D (11726825_at) / Fold change /veh VPS37D (11726825_at) / RFU C10orf10 (11716522_x_at) / Fold change /veh C10orf10 (11716522_x_at) / RFU KIR2DL2 /// KIR2DL4 /// KIR2DL5A /// KIR2DL5B /// KIR2DS1 /// KIR2DS2 /// KIR2DS3 /// KIR2DS4 /// KIR3DL3 /// KIR3DL3 /// KIR3DS1 (11738374_at) / Fold change /veh KIR2DL2 /// KIR2DL4 /// KIR2DL5A /// KIR2DL5B /// KIR2DS1 /// KIR2DS2 /// KIR2DS3 /// KIR2DS4 /// KIR3DL3 /// KIR3DL3 /// KIR3DS1 (11738374_at) / RFU C1QL1 (11718748_at) / Fold change /veh C1QL1 (11718748_at) / RFU TMPRSS4 (11747572_a_at) / Fold change /veh TMPRSS4 (11747572_a_at) / RFU HAMP (11756126_x_at) / Fold change /veh HAMP (11756126_x_at) / RFU RNFT2 (11725882_a_at) / Fold change /veh RNFT2 (11725882_a_at) / RFU NR4A2 (11747474_a_at) / Fold change /veh NR4A2 (11747474_a_at) / RFU ABCC12 (11746883_a_at) / Fold change /veh ABCC12 (11746883_a_at) / RFU TMEM136 (11760407_x_at) / Fold change /veh TMEM136 (11760407_x_at) / RFU CLDN22 /// WWC2 (11732394_at) / Fold change /veh CLDN22 /// WWC2 (11732394_at) / RFU HLA-DPB1 (11760878_x_at) / Fold change /veh HLA-DPB1 (11760878_x_at) / RFU SPINT1 (11716480_a_at) / Fold change /veh SPINT1 (11716480_a_at) / RFU GAP43 (11754022_s_at) / Fold change /veh GAP43 (11754022_s_at) / RFU A4GNT (11735810_at) / Fold change /veh A4GNT (11735810_at) / RFU PRB3 (11715151_x_at) / Fold change /veh PRB3 (11715151_x_at) / RFU TUBB4B (11761932_at) / Fold change /veh TUBB4B (11761932_at) / RFU CAPN14 (11732068_a_at) / Fold change /veh CAPN14 (11732068_a_at) / RFU TMCC2 (11721928_a_at) / Fold change /veh TMCC2 (11721928_a_at) / RFU IRGQ (11745062_a_at) / Fold change /veh IRGQ (11745062_a_at) / RFU FAM174B (11720279_a_at) / Fold change /veh FAM174B (11720279_a_at) / RFU TMPRSS4 (11748680_a_at) / Fold change /veh TMPRSS4 (11748680_a_at) / RFU FAM212B (11763350_a_at) / Fold change /veh FAM212B (11763350_a_at) / RFU PLEKHG5 (11743358_a_at) / Fold change /veh PLEKHG5 (11743358_a_at) / RFU ZSCAN30 (11745921_a_at) / Fold change /veh ZSCAN30 (11745921_a_at) / RFU CMKLR1 (11741424_a_at) / Fold change /veh CMKLR1 (11741424_a_at) / RFU LOC101060620 /// MAPK8IP1 (11723275_at) / Fold change /veh LOC101060620 /// MAPK8IP1 (11723275_at) / RFU SPTSSB (11747773_x_at) / Fold change /veh SPTSSB (11747773_x_at) / RFU PRSS12 (11739890_at) / Fold change /veh PRSS12 (11739890_at) / RFU BIN1 (11741810_x_at) / Fold change /veh BIN1 (11741810_x_at) / RFU WNT11 (11732464_a_at) / Fold change /veh WNT11 (11732464_a_at) / RFU C10orf10 (11716521_a_at) / Fold change /veh C10orf10 (11716521_a_at) / RFU C5orf56 (11738089_at) / Fold change /veh C5orf56 (11738089_at) / RFU CYB561 (11721691_x_at) / Fold change /veh CYB561 (11721691_x_at) / RFU ANKRD19P (11752326_a_at) / Fold change /veh ANKRD19P (11752326_a_at) / RFU OR2T12 /// OR2T33 /// OR2T8 (11738714_s_at) / Fold change /veh OR2T12 /// OR2T33 /// OR2T8 (11738714_s_at) / RFU VCAN (11748164_a_at) / Fold change /veh VCAN (11748164_a_at) / RFU JSRP1 (11732532_at) / Fold change /veh JSRP1 (11732532_at) / RFU KRTAP10-11 (11738290_x_at) / Fold change /veh KRTAP10-11 (11738290_x_at) / RFU MYO3A (11730013_a_at) / Fold change /veh MYO3A (11730013_a_at) / RFU EBF3 (11725865_a_at) / Fold change /veh EBF3 (11725865_a_at) / RFU CAMK2N1 (11719241_x_at) / Fold change /veh CAMK2N1 (11719241_x_at) / RFU C5orf56 (11738088_a_at) / Fold change /veh C5orf56 (11738088_a_at) / RFU OLFML3 (11715873_a_at) / Fold change /veh OLFML3 (11715873_a_at) / RFU LOC100653217 /// NTM (11731650_a_at) / Fold change /veh LOC100653217 /// NTM (11731650_a_at) / RFU MAPK11 (11762145_a_at) / Fold change /veh MAPK11 (11762145_a_at) / RFU FIZ1 (11724087_x_at) / Fold change /veh FIZ1 (11724087_x_at) / RFU OASL (11726364_x_at) / Fold change /veh OASL (11726364_x_at) / RFU SOX15 (11748057_x_at) / Fold change /veh SOX15 (11748057_x_at) / RFU CD79A (11719716_a_at) / Fold change /veh CD79A (11719716_a_at) / RFU HIST1H1D (11736915_at) / Fold change /veh HIST1H1D (11736915_at) / RFU CASKIN2 (11723855_a_at) / Fold change /veh CASKIN2 (11723855_a_at) / RFU LOC730098 (11760151_x_at) / Fold change /veh LOC730098 (11760151_x_at) / RFU OR4N2 (11742367_at) / Fold change /veh OR4N2 (11742367_at) / RFU PRRT2 (11749266_a_at) / Fold change /veh PRRT2 (11749266_a_at) / RFU SNX32 (11753110_a_at) / Fold change /veh SNX32 (11753110_a_at) / RFU CDHR5 (11726645_a_at) / Fold change /veh CDHR5 (11726645_a_at) / RFU RCAN1 (11760418_a_at) / Fold change /veh RCAN1 (11760418_a_at) / RFU FAM167A (11723789_a_at) / Fold change /veh FAM167A (11723789_a_at) / RFU FAM26E (11764081_at) / Fold change /veh FAM26E (11764081_at) / RFU ISYNA1 (11749810_s_at) / Fold change /veh ISYNA1 (11749810_s_at) / RFU ACY1 (11761880_at) / Fold change /veh ACY1 (11761880_at) / RFU 11764098_at / Fold change /veh 11764098_at / RFU SAMD14 (11745864_x_at) / Fold change /veh SAMD14 (11745864_x_at) / RFU NPB (11741838_a_at) / Fold change /veh NPB (11741838_a_at) / RFU TMPRSS6 (11731388_a_at) / Fold change /veh TMPRSS6 (11731388_a_at) / RFU KRTAP10-2 (11738614_at) / Fold change /veh KRTAP10-2 (11738614_at) / RFU ARHGAP8 /// PRR5-ARHGAP8 (11727945_x_at) / Fold change /veh ARHGAP8 /// PRR5-ARHGAP8 (11727945_x_at) / RFU KRTAP5-7 /// NADSYN1 (11734609_at) / Fold change /veh KRTAP5-7 /// NADSYN1 (11734609_at) / RFU RASL12 (11751679_a_at) / Fold change /veh RASL12 (11751679_a_at) / RFU CDKN2B (11736163_a_at) / Fold change /veh CDKN2B (11736163_a_at) / RFU PRF1 (11729649_at) / Fold change /veh PRF1 (11729649_at) / RFU, ZNF638 /// ZNF638-IT1 / Fold change vs veh, ZNF638 /// ZNF638-IT1 / RFU, PANK3 / Fold change vs veh, PANK3 / RFU, SH3YL1 / Fold change vs veh, SH3YL1 / RFU, ZEB2 / Fold change vs veh, ZEB2 / RFU, NRIP1 / Fold change vs veh, NRIP1 / RFU, PTTG1IP / Fold change vs veh, PTTG1IP / RFU, CAPN2 / Fold change vs veh, CAPN2 / RFU, MED14 / Fold change vs veh, MED14 / RFU, SNORA58 / Fold change vs veh, SNORA58 / RFU, C1orf63 / Fold change vs veh, C1orf63 / RFU, LRRFIP1 / Fold change vs veh, LRRFIP1 / RFU, NDUFAF7 / Fold change vs veh, NDUFAF7 / RFU, SLC12A2 / Fold change vs veh, SLC12A2 / RFU, IBTK / Fold change vs veh, IBTK / RFU, ESF1 / Fold change vs veh, ESF1 / Fold change vs veh, TMEM50B / RFU, TAOK1 / Fold change vs veh, TAOK1 / RFU, ACBD3 / Fold change vs veh, ACBD3 / RFU, TMA16 / Fold change vs veh, TMA16 / RFU, RWDD3 / Fold change vs veh, RWDD3 / RFU, BCAT1 / Fold change vs veh, BCAT1 / RFU, EDEM3 / Fold change vs veh, EDEM3 / RFU, TMEM33 / Fold change vs veh, TMEM33 / RFU, WDR75 / Fold change vs veh, WDR75 / RFU, AHCTF1 / Fold change vs veh, AHCTF1 / RFU, TFRC / Fold change vs veh, TFRC / RFU, ZDHHC17 / Fold change vs veh, ZDHHC17 / RFU, NOM1 / Fold change vs veh, NOM1 / RFU, ARL8B / Fold change vs veh, ARL8B / RFU, ZBTB11 / Fold change vs veh, ZBTB11 / RFU, TAMM41 / Fold change vs veh, TAMM41 / RFU, KIAA1704 /// LOC100996395 / Fold change vs veh, KIAA1704 /// LOC100996395 / RFU, ING1 / Fold change vs veh, ING1 / RFU, TRMT61B / Fold change vs veh, TRMT61B / RFU, FUBP3 / Fold change vs veh, FUBP3 / RFU, TP53 / Fold change vs veh, TP53 / RFU, TNKS2 / Fold change vs veh, TNKS2 / RFU, ZFP14 / Fold change vs veh, ZFP14 / RFU, ACTR2 / Fold change vs veh, ACTR2 / RFU, PPP3R1 / Fold change vs veh, PPP3R1 / RFU, PIK3R1 / Fold change vs veh, PIK3R1 / RFU, HNRNPA1 / Fold change vs veh, HNRNPA1 / RFU, RNF170 / Fold change vs veh, RNF170 / RFU, ZNF28 / Fold change vs veh, ZNF28 / RFU, RNGTT / Fold change vs veh, RNGTT / RFU, OGT / Fold change vs veh, OGT / RFU, BRD1 / Fold change vs veh, BRD1 / RFU, MARS / Fold change vs veh, MARS / RFU, ZNF655 / Fold change vs veh, ZNF655 / RFU, FAHD1 / Fold change vs veh, FAHD1 / RFU, BDP1 / Fold change vs veh, BDP1 / RFU, LRRCC1 / Fold change vs veh, LRRCC1 / RFU, ARID1A / Fold change vs veh, ARID1A / RFU, ZNF146 / Fold change vs veh, ZNF146 / RFU, ZNF330 / Fold change vs veh, ZNF330 / RFU, GPN3 / Fold change vs veh, GPN3 / RFU, C9orf123 / Fold change vs veh, C9orf123 / RFU, N4BP2L2 / Fold change vs veh, N4BP2L2 / RFU, ARFIP1 / Fold change vs veh, ARFIP1 / RFU, FAM179B / Fold change vs veh, FAM179B / RFU, BCL10 / Fold change vs veh, BCL10 / RFU, UHRF1BP1L / Fold change vs veh, UHRF1BP1L / RFU, BET1 / Fold change vs veh, BET1 / RFU, CNOT2 / Fold change vs veh, CNOT2 / RFU, ZNF268 / Fold change vs veh, ZNF268 / Fold change vs veh, ZNF507 / RFU, DGCR2 / Fold change vs veh, DGCR2 / RFU, WDSUB1 / Fold change vs veh, WDSUB1 / Fold change vs veh, HSP90B1 /// MIR3652 / RFU, ADSS / Fold change vs veh, ADSS / RFU, GK / Fold change vs veh, GK / RFU, ZNF148 / Fold change vs veh, ZNF148 / RFU, TAF9 / Fold change vs veh, TAF9 / RFU, SLC1A5 / Fold change vs veh, SLC1A5 / RFU, SLMO2 / Fold change vs veh, SLMO2 / RFU, ABCC4 / Fold change vs veh, ABCC4 / RFU, LOC101060439 /// RAP1B / Fold change vs veh, LOC101060439 /// RAP1B / RFU, RFX7 / Fold change vs veh, RFX7 / RFU, GTPBP10 / Fold change vs veh, GTPBP10 / RFU, CNEP1R1 / Fold change vs veh, CNEP1R1 / RFU, BIVM-ERCC5 /// ERCC5 / Fold change vs veh, BIVM-ERCC5 /// ERCC5 / RFU, ILF3 / Fold change vs veh, ILF3 / RFU 11762660_at / Fold change /veh 11762660_at / RFU VCAN (11757783_s_at) / Fold change /veh VCAN (11757783_s_at) / RFU DDX43 (11728927_at) / Fold change /veh DDX43 (11728927_at) / RFU KRT8 (11758188_x_at) / Fold change /veh KRT8 (11758188_x_at) / RFU NKD1 (11759106_at) / Fold change /veh NKD1 (11759106_at) / RFU SRD5A1 (11742802_a_at) / Fold change /veh SRD5A1 (11742802_a_at) / RFU TPSAB1 /// TPSB2 (11721975_s_at) / Fold change /veh TPSAB1 /// TPSB2 (11721975_s_at) / RFU GSTM3 (11746129_a_at) / Fold change /veh GSTM3 (11746129_a_at) / RFU IL23R (11737362_x_at) / Fold change /veh IL23R (11737362_x_at) / RFU TMEM51 (11727254_a_at) / Fold change /veh TMEM51 (11727254_a_at) / RFU PIWIL2 (11732686_x_at) / Fold change /veh PIWIL2 (11732686_x_at) / RFU ORM1 (11744905_x_at) / Fold change /veh ORM1 (11744905_x_at) / RFU CCDC152 (11743942_at) / Fold change /veh CCDC152 (11743942_at) / RFU ECM1 (11717891_a_at) / Fold change /veh ECM1 (11717891_a_at) / RFU IL23R (11748794_a_at) / Fold change /veh IL23R (11748794_a_at) / RFU TNFAIP8L3 (11732012_x_at) / Fold change /veh TNFAIP8L3 (11732012_x_at) / RFU MBOAT4 (11741988_at) / Fold change /veh MBOAT4 (11741988_at) / RFU 11764193_at / Fold change /veh 11764193_at / RFU TMEM53 (11763286_at) / Fold change /veh TMEM53 (11763286_at) / RFU MAGEB2 (11727129_at) / Fold change /veh MAGEB2 (11727129_at) / RFU TMEM200A (11744735_a_at) / Fold change /veh TMEM200A (11744735_a_at) / RFU CCDC152 (11751479_a_at) / Fold change /veh CCDC152 (11751479_a_at) / RFU FAM211A (11726209_a_at) / Fold change /veh FAM211A (11726209_a_at) / RFU RGS16 (11746705_a_at) / Fold change /veh RGS16 (11746705_a_at) / RFU VCAN (11755009_s_at) / Fold change /veh VCAN (11755009_s_at) / RFU RHOB (11743442_s_at) / Fold change /veh RHOB (11743442_s_at) / RFU RGS16 (11720943_a_at) / Fold change /veh RGS16 (11720943_a_at) / RFU RGS16 (11720944_at) / Fold change /veh RGS16 (11720944_at) / RFU, VPS4B / Fold change vs veh, VPS4B / RFU, CREB1 / Fold change vs veh, CREB1 / RFU, DNAJC13 / Fold change vs veh, DNAJC13 / RFU, GNAQ / Fold change vs veh, GNAQ / RFU, CDK5R1 / Fold change vs veh, CDK5R1 / RFU, ZRANB3 / Fold change vs veh, ZRANB3 / RFU, CUL4A / Fold change vs veh, CUL4A / RFU, CCNY / Fold change vs veh, CCNY / RFU, UFL1 / Fold change vs veh, UFL1 / RFU, COG3 / Fold change vs veh, COG3 / RFU, DIAPH2 / Fold change vs veh, DIAPH2 / RFU, SKA2 / Fold change vs veh, SKA2 / RFU, AFF3 / Fold change vs veh, AFF3 / RFU, LMF1 / Fold change vs veh, LMF1 / RFU, IPO11 / Fold change vs veh, IPO11 / RFU, DFFB / Fold change vs veh, DFFB / RFU, FOXP1 / Fold change vs veh, FOXP1 / RFU, CARD8 / Fold change vs veh, CARD8 / RFU, STRN3 / Fold change vs veh, STRN3 / RFU, ADK / Fold change vs veh, ADK / RFU, RASSF2 / Fold change vs veh, RASSF2 / RFU, WIPF1 / Fold change vs veh, WIPF1 / RFU, LARP1B / Fold change vs veh, LARP1B / RFU, RASA1 / Fold change vs veh, RASA1 / RFU, RB1 / Fold change vs veh, RB1 / RFU, PPFIA1 / Fold change vs veh, PPFIA1 / RFU, MAT2A / Fold change vs veh, MAT2A / RFU, CCT5 / Fold change vs veh, CCT5 / RFU, WDR92 / Fold change vs veh, WDR92 / RFU, CUX1 / Fold change vs veh, CUX1 / RFU, TTC7A / Fold change vs veh, TTC7A / RFU, TMEM135 / Fold change vs veh, TMEM135 / RFU, DEPTOR / Fold change vs veh, DEPTOR / RFU, CPM / Fold change vs veh, CPM / RFU, DNAJB6 / Fold change vs veh, DNAJB6 / RFU, CACNA2D3 / Fold change vs veh, CACNA2D3 / RFU, DTX4 / Fold change vs veh, DTX4 / RFU, TFCP2 / Fold change vs veh, TFCP2 / RFU, GMCL1 /// GMCL1P1 / Fold change vs veh, GMCL1 /// GMCL1P1 / RFU, AEBP2 / Fold change vs veh, AEBP2 / RFU, SNHG1 /// SNORD22 /// SNORD25 /// SNORD26 /// SNORD27 /// SNORD28 /// SNORD29 /// SNORD31 / Fold change vs veh, SNHG1 /// SNORD22 /// SNORD25 /// SNORD26 /// SNORD27 /// SNORD28 /// SNORD29 /// SNORD31 / Fold change (Aza/veh), C12orf56 (ProbeSet 11735607_a_at) / Fold change (ACY-1035/veh), C12orf56 (ProbeSet 11735607_a_at) / Fold change (Aza/veh), FGFR1OP (ProbeSet 11751329_s_at) / Fold change (ACY-1035/veh), FGFR1OP (ProbeSet 11751329_s_at) / Fold change (Aza/veh), VPS36 (ProbeSet 11739960_a_at) / Fold change (ACY-1035/veh), VPS36 (ProbeSet 11739960_a_at) / RFU SYPL1 (11715823_x_at) / Fold change /veh SYPL1 (11715823_x_at) / RFU IGFBP7 (11715501_s_at) / Fold change /veh IGFBP7 (11715501_s_at) / RFU REEP3 (11722064_at) / Fold change /veh REEP3 (11722064_at) / RFU IGLL1 (11728026_x_at) / Fold change /veh IGLL1 (11728026_x_at): dose or concentration left out as unconfirmed
Settings: ProbeSet 11717914_a_at; LIST B

Nc1ncn([C@@H]2O[C@H](CO)[C@@H](O)[C@H]2O)c(=O)n1 [azacitidine]
RFU, BIVM-ERCC5 /// ERCC5: 162.65 RFU
